In the supplement of paper PMC10307832:

Tests used:
Assay in all cases: relative viability (nuclei count vs DMSO), 5 days (fraction); higher = more cells survive
ChaGo-K-1 = test system: ChaGo-K-1
Procedure, shortened: (§1)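 Values are medians from duplicate plates. Each reflects relative viability, defined as the nuclei count of treated wells over that of vehicle wells. Lung cancer cell lines in 1536-well plates were pin-tool dosed one day after seeding with one drug alone or with a fixed anchor-drug dose plus five library-drug doses (not always all listed) in √10 steps, then fixed, stained and imaged at 4× after 5 days.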

EKVX = test system: EKVX
Procedure, shortened: as §1

EMC-BAC-2 = test system: EMC-BAC-2
Procedure, shortened: as §1

H3255 = test system: H3255
Procedure, shortened: as §1

HARA = test system: HARA
Procedure, shortened: as §1

HCC-15 = test system: HCC-15
Procedure, shortened: as §1

HCC-827 = test system: HCC-827
Procedure, shortened: as §1

LC-2-ad = test system: LC-2-ad
Procedure, shortened: as §1

LCLC-97TM1 = test system: LCLC-97TM1
Procedure, shortened: as §1

LU99A = test system: LU99A
Procedure, shortened: as §1

NCI-H1437 = test system: NCI-H1437
Procedure, shortened: as §1

NCI-H1793 = test system: NCI-H1793
Procedure, shortened: as §1

NCI-H1915 = test system: NCI-H1915
Procedure, shortened: as §1

NCI-H1944 = test system: NCI-H1944
Procedure, shortened: as §1

NCI-H2126 = test system: NCI-H2126
Procedure, shortened: as §1

NCI-H23 = test system: NCI-H23
Procedure, shortened: as §1

NCI-H322M = test system: NCI-H322M
Procedure, shortened: as §1

NCI-H441 = test system: NCI-H441
Procedure, shortened: as §1

NCI-H460 = test system: NCI-H460
Procedure, shortened: as §1

NCI-H661 = test system: NCI-H661
Procedure, shortened: as §1

PC-3 [JPC-3] = test system: PC-3 [JPC-3]
Procedure, shortened: as §1

SK-LU-1 = test system: SK-LU-1
Procedure, shortened: as §1

O=C(O)CCCCC(CCSCc1ccccc1)SCc1ccccc1 (stereo not drawn) [CPI-613] + Cc1cc(Nc2cc(N3CCN(C)CC3)nc(Sc3ccc(NC(=O)C4CC4)cc3)n2)n[nH]1 [Tozasertib] (partner 0.1 µM)
relative viability (ChaGo-K-1; first compound 5 µM): 0.207 | relative viability (ChaGo-K-1; first compound 15.81 µM): 0.185 | relative viability (ChaGo-K-1; first compound 50 µM): 0.234 | relative viability (ChaGo-K-1; first compound 158.11 µM): 0.148 | relative viability (ChaGo-K-1; first compound 500 µM): 0.16 | relative viability (EKVX; first compound 5 µM): 0.384 | relative viability (EKVX; first compound 15.81 µM): 0.401 | relative viability (EKVX; first compound 50 µM): 0.366 | relative viability (EKVX; first compound 158.11 µM): 0.368 | relative viability (EKVX; first compound 500 µM): 0.41 | relative viability (EMC-BAC-2; first compound 5 µM): 0.333 | relative viability (EMC-BAC-2; first compound 15.81 µM): 0.287 | relative viability (EMC-BAC-2; first compound 50 µM): 0.284 | relative viability (EMC-BAC-2; first compound 158.11 µM): 0.124 | relative viability (EMC-BAC-2; first compound 500 µM): 0.0704 | relative viability (H3255; first compound 5 µM): 0.529 | relative viability (H3255; first compound 15.81 µM): 0.615 | relative viability (H3255; first compound 50 µM): 0.579 | relative viability (H3255; first compound 500 µM): 0.753 | relative viability (HARA; first compound 15.81 µM): 0.117 | relative viability (HARA; first compound 50 µM): 0.0973 | relative viability (HARA; first compound 158.11 µM): 0.0946 | relative viability (HARA; first compound 500 µM): 0.0096 | relative viability (HCC-15; first compound 5 µM): 0.514 | relative viability (HCC-15; first compound 15.81 µM): 0.367 | relative viability (HCC-15; first compound 50 µM): 0.369 | relative viability (HCC-15; first compound 158.11 µM): 0.29 | relative viability (HCC-15; first compound 500 µM): 0.112 | relative viability (HCC-827; first compound 5 µM): 0.451 | relative viability (HCC-827; first compound 15.81 µM): 0.388 | relative viability (HCC-827; first compound 50 µM): 0.409 | relative viability (HCC-827; first compound 158.11 µM): 0.375 | relative viability (HCC-827; first compound 500 µM): 0.292 | relative viability (LC-2-ad; first compound 5 µM): 0.45 | relative viability (LC-2-ad; first compound 15.81 µM): 0.398 | relative viability (LC-2-ad; first compound 50 µM): 0.459 | relative viability (LC-2-ad; first compound 158.11 µM): 0.267 | relative viability (LC-2-ad; first compound 500 µM): 0.0577 | relative viability (LCLC-97TM1; first compound 5 µM): 0.209 | relative viability (LCLC-97TM1; first compound 15.81 µM): 0.204 | relative viability (LCLC-97TM1; first compound 50 µM): 0.247 | relative viability (LCLC-97TM1; first compound 158.11 µM): 0.138 | relative viability (LCLC-97TM1; first compound 500 µM): 0.0361 | relative viability (LU99A; first compound 5 µM): 0.299 | relative viability (LU99A; first compound 15.81 µM): 0.298 | relative viability (LU99A; first compound 50 µM): 0.293 | relative viability (LU99A; first compound 158.11 µM): 0.343 | relative viability (LU99A; first compound 500 µM): 0.34 | relative viability (NCI-H1437; first compound 5 µM): 0.374 | relative viability (NCI-H1437; first compound 15.81 µM): 0.39 | relative viability (NCI-H1437; first compound 50 µM): 0.407 | relative viability (NCI-H1437; first compound 158.11 µM): 0.156 | relative viability (NCI-H1437; first compound 500 µM): 0.131 | relative viability (NCI-H1793; first compound 5 µM): 0.297 | relative viability (NCI-H1793; first compound 15.81 µM): 0.281 | relative viability (NCI-H1793; first compound 50 µM): 0.308 | relative viability (NCI-H1793; first compound 158.11 µM): 0.149 | relative viability (NCI-H1793; first compound 500 µM): 0.0274 | relative viability (NCI-H1915; first compound 5 µM): 0.44 | relative viability (NCI-H1915; first compound 15.81 µM): 0.4 | relative viability (NCI-H1915; first compound 50 µM): 0.322 | relative viability (NCI-H1915; first compound 158.11 µM): 0.241 | relative viability (NCI-H1915; first compound 500 µM): 0.111 | relative viability (NCI-H1944; first compound 5 µM): 0.264 | relative viability (NCI-H1944; first compound 15.81 µM): 0.233 | relative viability (NCI-H1944; first compound 50 µM): 0.268 | relative viability (NCI-H1944; first compound 158.11 µM): 0.195 | relative viability (NCI-H1944; first compound 500 µM): 0.127 | relative viability (NCI-H2126; first compound 5 µM): 0.775 | relative viability (NCI-H2126; first compound 15.81 µM): 0.778 | relative viability (NCI-H2126; first compound 50 µM): 0.817 | relative viability (NCI-H2126; first compound 158.11 µM): 0.281 | relative viability (NCI-H2126; first compound 500 µM): 0.0758 | relative viability (NCI-H23; first compound 5 µM): 0.348 | relative viability (NCI-H23; first compound 15.81 µM): 0.284 | relative viability (NCI-H23; first compound 50 µM): 0.337 | relative viability (NCI-H23; first compound 158.11 µM): 0.223 | relative viability (NCI-H23; first compound 500 µM): 0.0061 | relative viability (NCI-H322M; first compound 5 µM): 0.499 | relative viability (NCI-H322M; first compound 15.81 µM): 0.452 | relative viability (NCI-H322M; first compound 50 µM): 0.499 | relative viability (NCI-H322M; first compound 158.11 µM): 0.25 | relative viability (NCI-H322M; first compound 500 µM): 0.0634 | relative viability (NCI-H441; first compound 5 µM): 0.704 | relative viability (NCI-H441; first compound 15.81 µM): 0.633 | relative viability (NCI-H441; first compound 50 µM): 0.649 | relative viability (NCI-H441; first compound 158.11 µM): 0.247 | relative viability (NCI-H441; first compound 500 µM): 0.0826 | relative viability (NCI-H460; first compound 5 µM): 0.497 | relative viability (NCI-H460; first compound 15.81 µM): 0.28 | relative viability (NCI-H460; first compound 50 µM): 0.457 | relative viability (NCI-H460; first compound 158.11 µM): 0.371 | relative viability (NCI-H460; first compound 500 µM): 0.418 | relative viability (NCI-H661; first compound 5 µM): 0.358 | relative viability (NCI-H661; first compound 15.81 µM): 0.324 | relative viability (NCI-H661; first compound 50 µM): 0.348 | relative viability (NCI-H661; first compound 158.11 µM): 0.331 | relative viability (NCI-H661; first compound 500 µM): 0.203 | relative viability (PC-3 [JPC-3]; first compound 5 µM): 0.81 | relative viability (PC-3 [JPC-3]; first compound 15.81 µM): 0.808 | relative viability (PC-3 [JPC-3]; first compound 50 µM): 0.762 | relative viability (PC-3 [JPC-3]; first compound 158.11 µM): 0.499 | relative viability (PC-3 [JPC-3]; first compound 500 µM): 0.498 | relative viability (SK-LU-1; first compound 5 µM): 0.321 | relative viability (SK-LU-1; first compound 15.81 µM): 0.244 | relative viability (SK-LU-1; first compound 50 µM): 0.299 | relative viability (SK-LU-1; first compound 158.11 µM): 0.25 | relative viability (SK-LU-1; first compound 500 µM): 0.195
